The values that follow come from patent US6224887A, “Antifungal nail lacquer and method using same” (MacroChem Corporation, priority 1999, dated 2001).

Where two headings read alike, the source gives them in different places.

For this series the following is noted: lacquer, 1200 h. As for the experimental part: Using the above formulation with 5% Econazole and 53% ethanol, stability testing was performed. […] In addition, gas chromatography quantitative analysis was conducted on samples stored in glass containers for 50 days at 40° C./75%RH at varying pH (5.2, 6.83, 12.2; by addition of acid or base, as necessary).
The analytical test procedure involves a simple direct dilution and injection method for determining levels of both antifungal agent and enhancer compound in the same chromatogram, i.e., without separation steps. […] Specifically, a Hewlett-Packard Model 5890 Chromatograph with a Hewlett-Packard 50+(crosslinked 50% phenylmethylsiloxane), 30 m, 0.32 mm ID, 0.50μ film (Cat. #19091L) column and Model 7673 Autoinjector, operating in split mode (split flow 0.7 mL/min; split ratio 0.652:1), using methanol as wash solvent and hexanophenone as internal standard, was used for the analysis. In Table 2 the results are reported for the average of six injections.

Turning to `Clc1ccc(COC(Cn2ccnc2)c2ccc(Cl)cc2Cl)cc1` (stereo not drawn) [Econazole], the “Econazole Assay” value is, setting by setting: (pH 5.2) 94.29%; (pH 6.83) 96.67%; (pH 12.2) 97.60%.

In the case of `CCCCCCCCCC1OCCO1` [SEPA, 2-n-nonyl-1,3-dioxolane], the SEPA assay runs as follows: (pH 5.2) 93.85%; (pH 6.83) 98.41%; (pH 12.2) 99.36%.
